How the values were obtained:
brain 11β‐HSD1 = details: aged mice and murine Tg2576 model of AD; cited from earlier work
[1] = system: mice with age‐associated cognitive impairment; murine Tg2576 model of AD; details: aged mice and murine Tg2576 model of AD; cited from earlier work
[2] = system: healthy older men; patients with type 2 diabetes mellitus; set-up: method as in PMID 15071189; details: cited from earlier work
[3] = Population pharmacokinetic (PPK) analysis of MAD, XanADu and XanaHES trials; format: in vivo, human
Method: PPK analysis was performed on data from 3 trials: the MAD trial in volunteers; the XanADu trial in patients with AD; and XanaHES in older, cognitively normal participants. In total, 138 participants (18 healthy volunteers, 90 patients with AD, and 30 healthy older participants) contributed a total of 1087 evaluable plasma concentration observations.
The analyses were performed using NONMEM Version 7.3.0 (ICON plc). PK parameter relationships were sought with the covariates body weight, age, sex, and healthy versus AD. The selected PPK model was a one‐compartment model with first‐order absorption and elimination. It was successfully fitted using Monte Carlo Importance Sampling Expectation Maximization estimation and included separate relative bioavailability terms for the Day 1 PK data from the XanADu and XanaHES trials. The M3 method was used to permit the inclusion of the below‐the‐limit quantification concentrations in the analysis. The model estimated between‐subject variation in all 4 parameters and used a full ω block to estimate the covariance between parameters. The model included a weight effect on the apparent volume of distribution.

[4] = system: cognitively normal, older participants; assay: XanaHES (ACW0003) computerized cognitive test battery (Cogstate); format: in vivo, human; details: 20 mg daily, over 12 weeks
Method: The next trial, XanaHES (ACW0003) was a double‐blind, placebo‐controlled, Phase 1b trial in cognitively normal, older participants (age range, 50‐75 years) at a dose of 20 mg daily for 12 weeks. The population of 42 participants comprised 30 receiving emestedastat and 12 receiving placebo. The objectives were to assess safety, PK, HPA PD, and cognition. The computerized cognitive test battery (CTB; Cogstate) assessed attention, working memory, and episodic memory.
(§1) In both XanaHES and XanaMIA‐DR, cognition was assessed using a computerized CTB (Cogstate). The CTB comprised tests indexing key domains of cognition including processing speed, attention, visual learning, working memory, psychomotor function, and executive function. In XanaHES, least squares mean differences between the emestedastat 20 mg treatment group and the placebo group were estimated and tested at a 2‐sided 0.05 significance level. No adjustments for α were made for multiple comparisons. In XanaMIA‐DR, standardized effect sizes, equivalent to a Z score, were calculated with a threshold for clinically meaningful effect set at 0.9, representing a 1‐sided 80% confidence interval (CI).
(§2) The individual tests from the Cogstate battery were combined into 2 composite scores indexing: • · “Attention Composite” of attention and working memory (Detection Test, Identification Test, One Back Test) • · “Memory Composite” of episodic memory and learning (One Card Learning Test, Continuous Paired Associate Learning Test, and Continuous Paired Associate Learning Test‐Delayed Recall).
(§3) To compute the Attention and Memory Composite scores, each of the component‐test scores were Z transformed, the directionality of scores was reversed so that higher scores indicate better performance, and the component Z scores were averaged.

[5] = system: healthy older participants; assay: XanaMIA‐DR (ACW0005) computerized cognitive test battery (Cogstate); format: in vivo, human
Method: XanaMIA‐DR (ACW0005) was a double‐blind placebo‐controlled Phase 1b trial in 107 healthy older participants (age range, 50‐80 years) at doses of 5 and 10 mg daily for 6 weeks. The principal objective of XanaMIA‐DR was to assess whether the improvements in cognition observed in XanaHES were also present at the lower doses of 5 and 10 mg daily.
as §1, §2, §3

[6] = Safety and tolerability in clinical trials; format: in vivo, human
Source text: All trials were approved by a local ethics committee/institutional review board, and all participants gave written informed consent. Endocrinology data and a population PK (PPK) analysis are available from the following trials: • · A single‐ascending‐dose (SAD) trial in healthy volunteers (RD 656/25368)[25] • · A multiple‐ascending‐dose (MAD) trial in healthy volunteers, including a small subtrial measuring CSF concentrations (ACW0001)[25] • · A positron emission tomography (PET) trial in cognitively normal, older volunteers and patients with AD (ACW0004)[26] • · Two trials in cognitively normal, older volunteers examining safety and effects on cognition (Trials ACW0003, NCT03830762 and ACW0005; and NCT04983368) • · A PPK analysis from the healthy volunteer and patient trials • · HPA axis endocrinology data from the volunteer and patient trials • · A trial of efficacy and safety in patients with AD (ACW0002; NCT02727699)[27]
Initially, the SAD and MAD trials studied doses up to 35 mg twice daily and assessed PK and HPA PD.

[7] = set-up: method as in PMID 28012176; details: cited from earlier work
11β‐HSD1 = system: 11β‐HSD1; set-up: method as in PMID 38250767; details: 5 mg; cited from earlier work
peripheral 11β‐HSD1 = system: peripheral 11β‐HSD1; set-up: method as in PMID 28012176; details: all doses in the MAD trial (10 to 35 mg twice daily); cited from earlier work
patients with AD = system: patients with AD; set-up: method as in PMID 34679364; details: 10 mg daily 12 weeks, elevated plasma pTau181; cited from earlier work
[8] = SAD and MAD trials of up to 35 mg twice daily; cited from earlier work
AD population = system: AD population; set-up: method as in PMID 24418055; details: 12‐week Phase 2 trial in AD; cited from earlier work

SMILES: O=C(c1csc(-c2cn[nH]c2)c1)N1CCC(F)(c2ccccc2Cl)CC1 [UE2316]
- inhibition of 11β‐HSD1 in the brain (brain 11β‐HSD1): approximately 30%
- amyloid‐β in the cortex [1]: reduction in amyloid‐β in the cortex
- memory [1]: improved memory

SMILES: CC1(C)[C@@H](OC(=O)CCC(=O)O)CC[C@]2(C)[C@H]3C(=O)C=C4[C@@H]5C[C@@](C)(C(=O)O)CC[C@]5(C)CC[C@@]4(C)[C@]3(C)CC[C@@H]12 [carbenoxolone]
- verbal fluency test (executive function) ([2]; 10 healthy older (55‐75 years) men, 4 weeks): improved
- verbal memory in the Rey Auditory Verbal Learning Test ([2]; 12 patients with type 2 diabetes mellitus): improved verbal memory

SMILES: O=C(c1csc(-c2cn[nH]c2)c1)N1C2CCC1CC(O)(c1ncccn1)C2 (stereo not drawn) [emestedastat, (5‐(1H‐Pyrazol‐4‐yl)thiophen‐3‐yl)(3‐hydroxy‐3‐(pyrimidin‐2‐yl)‐8 azabicyclo[3.2.1]octan‐8‐yl) methanone]
- linearity of PK ([3]; dose range 10‐70 mg): linear
- ALAG (absorption lag time), estimate ([3]; final PPK model): 0.900 h
- ka (absorption rate), estimate ([3]; final PPK model): 1.74 h⁻¹
- CL/F (apparent clearance), estimate ([3]; final PPK model, 138 participants): 4.76 L/h
- WT on V/F (covariate), estimate ([3]; final PPK model, weight effect on V/F): 1.00
- Vd/F ([3]; human, plasma, oral, final PPK model, read-out: V/F (apparent volume of distribution), estimate): 64.3 L
- half-life ([3]; human, plasma, oral, from kel = CL/V and t1/2 = ln(2)/Kel, read-out: mean elimination half‐life (95% CI)): 9.36 h
- One Card Learning Test, Continuous Paired Associate Learning Test and Delayed Recall, vs placebo [4]: no difference between groups
- least squares mean difference on the One Back Test compared to placebo [4]: −0.06 U
- least squares mean difference on the detection test compared to placebo [4]: −0.04 U
- least squares mean difference on the identification test compared to placebo [4]: −0.03 U
- Cohen's d, One Back Test ([4]; vs placebo): 0.98
- Cohen's d, detection test ([4]; vs placebo): 0.49
- Cohen's d, identification test ([4]; vs placebo): 0.65
- treatment effect in the tests making up the Memory Composite ([5]; 5 and 10 mg daily, 6 weeks): no evidence of any treatment effect
- improvement on the identification test (visual attention) compared to placebo ([5]; 5‐mg treatment group, 6 weeks): −0.018 U
- Cohen's d, identification test ([5]; 5‐mg treatment group, vs placebo): 0.32
- maximum tolerated dose in humans ([6]; all trials): has not been established
- serious adverse events attributed to drug ([6]; any trial): no serious adverse events
- CSF : free plasma ratio ([7]; 4 participants, single time point): 0.33
- urinary excretion of unchanged drug ([7]; SAD and MAD trials): < 5%
- occupancy in the cerebellum relative to cortex (11β‐HSD1): lower (by about half)
- inhibition of peripheral 11β‐HSD1 (suppression of urinary tetrahydrocortisol/tetrahydrocortisone ratios) (peripheral 11β‐HSD1): Near complete inhibition
- Cohen's d, AD COMposite Scores (patients with AD): < 0.2
- Cohen's d, ADAS‐Cog14 (patients with AD): < 0.2
- Cohen's d, Clinical Dementia Ratio—Sum of Boxes compared to placebo (patients with AD): 0.41
- Cohen's d, Mini‐Mental State Examination (patients with AD): < 0.2
- Cohen's d, Neuropsychological Test Battery‐Executive domain (patients with AD): 0.26
- maximum tolerated dose [8]: had not been established
- tolerability [8]: well tolerated

SMILES: CC(C)(C(=O)NC1C2CC3CC1CC(C(N)=O)(C3)C2)N1CCN(c2ccc(C(F)(F)F)cn2)CC1 (stereo not drawn) [ABT‐384]
- therapeutic outcome in AD (AD population): therapeutic failure

Source: article PMC11788964, “Clinical Pharmacology and Approach to Dose Selection of Emestedastat, a Novel Tissue Cortisol Synthesis Inhibitor for the Treatment of Central Nervous System Disease” (Clinical Pharmacology in Drug Development, 2025)
